Measurements as given in patent publication US11766412B2, “Methods of treating or alleviating adenylosuccinatelyase (ADSL) deficiency using spermidine or a pharmaceutically acceptable salt of spermidine” (GENEHEAL BIOTECHNOLOGY CO., LTD., priority 2016, dated 2023).
Non-standard residues stand in square brackets, D forms with d. Residues, ends and D or L forms follow the SMILES beside them. Arg(NO2) = N=C(NCCC[C@H](N)C(=O)O)N[N+](=O)[O-]; Dab = NCC[C@H](N)C(=O)O

Test system: SAICAR synthetase
Assay: Inhibition of SAICAR accumulation, biochemical enzyme activity experiments and cell biology experiments
Text: On the basis of the above results, the crystal structure conformations in SAICAR synthetases of Saccharomyces cerevisiae (PDB: 2CNQ) and Escherichia coli (PDB: 2GQS) are used as receptor structures for calculating and screening, since there is no conformation which can bind CAIR in human PAICS crystal structure, and no catalytic conformation formed in the catalytic region, and the results obtained by calculation are not reliable. 4661 of small molecule drugs in the DrugBank (www.drugbank.ca) are calculated and screened by using the ligand fit module of Discovery studio. The conformations are ordered according to dock scores, and then the first 500 conformations are selected. After eliminating the repetitions, key screening results are obtained. In addition, the inhibition ratios of the compounds against SAICAR accumulation are confirmed by biochemical enzyme activity experiments and cell biology experiments, as shown in Table 1.

Question: N[C@@H](CCC(=O)N[C@@H](CSCc1ccc([N+](=O)[O-])cc1)C(=O)NCC(=O)O)C(=O)O [D1303686, S-(P-Nitrobenzyl)Glutathione] was tested. Which “Inhibition ratios against SAICAR accumulation” value (from here on “Inhibition ratios”) did it give?
Answer: 63.83%

Question: How did the “Inhibition ratios” value turn out when NC[C@H]1O[C@H](O[C@H]2[C@H](O)[C@@H](O)[C@H](N)C[C@@H]2N)[C@H](N)[C@@H](O)[C@@H]1O [D1304808, Neamine] was run?
Answer: 37.11%

Question: With N[C@@H](Cc1cc(N=Nc2ccccn2)c(O)cc1O)C(=O)O [DB01634, 2-Oxy-4-Hydroxy-5-(2-Hydrazinopyridine)Phenylalanine] as the compound, how does the “Inhibition ratios” value read?
Answer: 23.7%

Question: NC(CC1=CC(=NC2CC2c2ccccc2)C(O)=CC1=O)C(=O)O (stereo not drawn) [DB01657, 2-Amino-3-[4-Hydroxy-6-Oxo-3-(2-Phenyl-Cyclopropylimino)-Cyclohexa-1,4-Dienyl]-Propionic acid] was tested. Which “Inhibition ratios” value did it give?
Answer: 22.9%

Question: With Cc1ncc(COP(=O)(O)O)c(CN[C@@H](CCC(=O)O)C(=O)O)c1O [DB01813, Pyridoxyl-Glutamic Acid-5′-Monophosphate] as the compound, how does the “Inhibition ratios” value read?
Answer: 40.9%

Question: N[C@@H](CCCCNC(C(=O)O)C(=O)O)C(=O)O [DB01815, Nz-(Dicarboxymethyl)Lysine] was tested. Which “Inhibition ratios” value did it give?
Answer: 22.68%

Question: How did the “Inhibition ratios” value turn out when NCC[C@H](NC(=O)[C@@H](N)CCCN=C(N)N[N+](=O)[O-])C(N)=O [DB01821, L-N(Omega)-Nitroarginine-2,4-L-Diaminobutyric Amide] (H-[Arg(NO2)]-[Dab]-NH2) was run?
Answer: 57.11%

Question: How did the “Inhibition ratios” value turn out when Nc1ncnc2c1ncn2[C@@H]1O[C@H](COP(=O)(O)OC(=O)[C@@H](N)CC(=O)O)[C@@H](O)[C@H]1O [DB01895, Aspartyl-Adenosine-5′-Monophosphate] was run?
Answer: 22.918%

Question: Which “Inhibition ratios” value does the source give for NC(CSC1C=C(C(N)C(=O)O)ON1)C(=O)O (stereo not drawn) [DB01974, 2-Amino-3-[5-(Amino-Carboxy-Methyl)-2,3-Dihydro-Isoxazol-3-Ylsulfanyl]-Propionic Acid] here?
Answer: 66.711%

Question: How did the “Inhibition ratios” value turn out when NCCC[C@H](NC(=O)CP(=O)(O)O)C(=O)O [DB02011, N-(phosphonoacetyl)-L-Ornithine] was run?
Answer: 41.85%

Question: How did the “Inhibition ratios” value turn out when O=c1[nH]cnc2c([C@@H]3N[C@H](COP(=O)(O)O)[C@@H](O)[C@H]3O)c[nH]c12 [DB02075, (1s)-1-(9-Deazahypoxanthin-9-yl)-1,4-Di Deoxy-1,4-Imino-D-Ribitol-5-Phosphate] was run?
Answer: 28.5%

Question: With NC(=O)[C@@H]1C[C@@H](NC(=O)[C@@H](N)CCCN=C(N)N[N+](=O)[O-])CN1 [DB02077, L-N(Omega)-Nitroarginine-(4r)-Amino-L-Proline Amide] as the compound, how does the “Inhibition ratios” value read?
Answer: 71.8%

Question: Which “Inhibition ratios” value does the source give for NC(=NCCCC(N)C(=O)O)NC(CC(=O)O)C(=O)O (stereo not drawn) [DB02267, Argininosuccinate] here?
Answer: 86.81%

Question: With OCC(OS(O)(O)O)[C@H](O)CN1C[C@@H](O)[C@H](O)[C@H]1CO (stereo partly drawn) [DB02492, Ghavamiol] as the compound, how does the “Inhibition ratios” value read?
Answer: 17.4%

Question: With Cc1ccc(OCC(=CC=O)Nc2cc(C[C@H](N)C(=O)O)c(O)cc2O)cc1 [DB02537, 2 -Hydroxy-5-({1-[(4-Methylphenoxy)Methyl]-3-Oxoprop-1-Enyl}Amino)-L-Tyrosin] as the compound, how does the “Inhibition ratios” value read?
Answer: 71.1%

Question: With Cc1ncc(COP(=O)(O)O)c(CNCC(=O)O)c1O [DB02824, N-Pyridoxyl-Glycine-5-Monophosphate] as the compound, how does the “Inhibition ratios” value read?
Answer: 77.97%

Question: Which “Inhibition ratios” value does the source give for CC(N)C(CCCCCC(=O)O)NC(=O)OP(=O)(O)O (stereo not drawn) [DB02927, Mixed Carbamic Phosphoric Acid Anhydride of 7,8-Diaminononanic acid] here?
Answer: 22.8%

Question: For CC(N)C(CCCCCC(=O)O)CC(=O)O (stereo not drawn) [DB02941, 3-(1-Aminoethyl)Nonanedioic Acid], which “Inhibition ratios” value is on record?
Answer: 69.8%

Question: How did the “Inhibition ratios” value turn out when N[C@@H](CCC(=O)N[C@@H](CS(=O)(=O)O)C(=O)NCC(=O)O)C(=O)O [DB03003, Glutathione Sulfonic acid] was run?
Answer: 38%

Question: How did the “Inhibition ratios” value turn out when C=C[C@@H](NC(=O)[C@H](CS)NC(=O)CCC[C@H](N)C(=O)O)C(=O)O [DB03427, Delta-(L-Alpha-Aminoadipoyl)-L-Cysteinyl-D-Vinylglycine] was run?
Answer: 13.3%

Question: Which “Inhibition ratios” value does the source give for Cc1ncc(COP(=O)(O)O)c(CNC(C(C)C)P(=O)(O)O)c1O (stereo not drawn) [DB03433, {[(3-Hydroxy-2-Methyl-5-Phosphonooxymethyl-Pyridin-4-ylmethyl)-Amino]-2-Methyl-Propyl}-Phosphonic Acid] here?
Answer: 53.38%

Question: NCCCCNCCCN [DB03566, Spermidine] was tested. Which “Inhibition ratios” value did it give?
Answer: 68.98%

Question: For NCCC[C@H](NC(=O)CCC(=O)O)C(=O)O [DB03582, N-2-Succinylornithine], which “Inhibition ratios” value is on record?
Answer: 19.97%

Question: Which “Inhibition ratios” value does the source give for N[C@@H](CCC(=O)N[C@@H](CSCc1ccccc1)C(=O)NCC(=O)O)C(=O)O [DB03602, S-Benzyl-Glutathione] here?
Answer: 36.5%

Question: CC(N)C(CCCCCC(=O)O)NC(=O)O (stereo not drawn) [DB03624, 7-(Carboxyamino)-8-Amino-Nonanoic Acid] was tested. Which “Inhibition ratios” value did it give?
Answer: 51.9%

Question: How did the “Inhibition ratios” value turn out when C[C@@H](NC(=O)CCCC[C@H](NC(=O)CN)C(=O)O)C(=O)O [DB03927, Glycyl-L-Alpha-Amino-Epsilon-Pimelyl-D-Alanine] was run?
Answer: 29.859%

Question: With N[C@@H](CCC(=O)N[C@@H](CSCO)C(=O)NCC(=O)O)C(=O)O [DB04153, S-Hydroxymethyl Glutathione] as the compound, how does the “Inhibition ratios” value read?
Answer: 58%

Question: For NC(CCCCN[C@@H](CCC(=O)O)C(=O)O)C(=O)O (stereo partly drawn) [DB04207, N-(5-Amino-5-Carboxypentyl)-Glutamic Acid], which “Inhibition ratios” value is on record?
Answer: 65.69%

Question: How did the “Inhibition ratios” value turn out when N[C@@H](CSC1CC(CC(=O)O)ON1N)C(=O)O (stereo partly drawn) [DB04323, 2-Amino-3-(Cystein-S-Yl)-Isoxazolidin-5-Yl-Acetic acid] was run?
Answer: 56.68%

Question: With N[C@@H](CCC(=O)N[C@@H](CSCc1cccc(I)c1)C(=O)NCC(=O)O)C(=O)O [DB04341, S-(3-Iodobenzyl)Glutathione] as the compound, how does the “Inhibition ratios” value read?
Answer: 9.9%

Question: How did the “Inhibition ratios” value turn out when Cc1cccc(C2=C(c3ccc4ncccc4n3)CNN2)n1 [DB04434, Naphthyridine Inhibitor] was run?
Answer: 22.98%

Question: CN(C)c1ncnc2c1ncn2[C@@H]1O[C@H](COP(=O)(O)O)[C@@H](N)[C@H]1O [DB04602, PUROMYCIN AMINONUCLEOSIDE-5′-MONOPHOSPHATE] was tested. Which “Inhibition ratios” value did it give?
Answer: 12.9%

Question: For CN(CC[C@H](N)CC(=O)N[C@H]1C=C[C@H](N2C=C[C@@](N)(O)NC2=O)O[C@@H]1C(=O)O)C(=N)N [DB04649, TETRAHEDRAL INTERMEDIATE OF BLASTICIDIN S], which “Inhibition ratios” value is on record?
Answer: 20.09%

Question: How did the “Inhibition ratios” value turn out when NCCCCCCNCCCCCCN [DB04684, BIS(HEXAMETHYLENE)TRIAMINE] was run?
Answer: 9.3%

Question: How did the “Inhibition ratios” value turn out when N[C@@H](CCC(=O)N[C@@H](CS(=O)O)C(=O)NCC(=O)O)C(=O)O [DB04700, GLUTATHIONE SULFINATE] was run?
Answer: 9.98%

Question: CSC[C@H](NC(=O)CC[C@H](N)C(=O)O)C(=O)NCC(=O)O [DB04701, S-METHYL-GLUTATHIONE] was tested. Which “Inhibition ratios” value did it give?
Answer: 40.1%

Question: Which “Inhibition ratios” value does the source give for Cc1ncc(COP(=O)(O)O)c(CN[C@H](CCC(=O)O)C(=O)O)c1O [DB04762, N-PYRIDOXYL-D-GLUTAMIC ACID-5′-MONOPHOSPHATE] here?
Answer: 27.7%

Question: With C[C@H](NC(=NCC(=O)O)Nc1ccc(C#N)cc1)c1ccccc1 [DB04778, SC45647] as the compound, how does the “Inhibition ratios” value read?
Answer: 11.29%

Question: For “N-ethyl-N[3-(propylamino)propyl]propane-1,3-diamine [DB04633]”, which “Inhibition ratios” value is on record?
Answer: 12.798%
